Key:
Details in all cases: 72 h
Caco-2 [1] = experiment: drug sensitivity score (DSS) for viability; higher = more toxic; extreme values may be limits of the assay
Calu-3 [2] = experiment: as above
HepG2 [3] = experiment: as above
U2OS [4] = experiment: as above
Vero E6 [5] = experiment: as above
Caco-2 [6] = experiment: cell viability relative to DMSO; higher = less toxic
Calu-3 [7] = experiment: as above
HepG2 [8] = experiment: as above
U2OS [9] = experiment: as above
Vero E6 [10] = experiment: as above
Caco-2 [11] = experiment: relative viability EC50 (midpoint between 100% and the lowest measured viability); higher = less toxic
Calu-3 [12] = experiment: as above
HepG2 [13] = experiment: as above
U2OS [14] = experiment: as above
Vero E6 [15] = experiment: as above

SMILES	drug sensitivity score (Caco-2 [1])	drug sensitivity score (Calu-3 [2])	drug sensitivity score (HepG2 [3])	drug sensitivity score (U2OS [4])	drug sensitivity score (Vero E6 [5])	cell viability (Caco-2 [6]; 1 nM)	cell viability (Caco-2 [6]; 10 nM)	cell viability (Caco-2 [6]; 100 nM)	cell viability (Caco-2 [6]; 1000 nM)	cell viability (Caco-2 [6]; 10000 nM)	cell viability (Calu-3 [7]; 1 nM)	cell viability (Calu-3 [7]; 10 nM)	cell viability (Calu-3 [7]; 100 nM)	cell viability (Calu-3 [7]; 1000 nM)	cell viability (Calu-3 [7]; 10000 nM)	cell viability (HepG2 [8]; 1 nM)	cell viability (HepG2 [8]; 10 nM)	cell viability (HepG2 [8]; 100 nM)	cell viability (HepG2 [8]; 1000 nM)	cell viability (HepG2 [8]; 10000 nM)	cell viability (U2OS [9]; 1 nM)	cell viability (U2OS [9]; 10 nM)	cell viability (U2OS [9]; 100 nM)	cell viability (U2OS [9]; 1000 nM)	cell viability (U2OS [9]; 10000 nM)	cell viability (Vero E6 [10]; 1 nM)	cell viability (Vero E6 [10]; 10 nM)	cell viability (Vero E6 [10]; 100 nM)	cell viability (Vero E6 [10]; 1000 nM)	cell viability (Vero E6 [10]; 10000 nM)	relative viability EC50 (Caco-2 [11])	relative viability EC50 (Calu-3 [12])	relative viability EC50 (HepG2 [13])	relative viability EC50 (U2OS [14])	relative viability EC50 (Vero E6 [15])
COc1cc(C(=O)N(CC[C@H]2CCCN2C)C/C(C)=C/c2ccccc2F)cc(OC)c1OC (racemic)	0	0	0.1	0	0	97.4%	98.7%	99.7%	103%	93.5%	93.5%	108%	103%	104%	94.4%	103%	102%	95.8%	104%	86.6%	98.6%	96.8%	102%	99.2%	97.7%	102%	102%	103%	99.5%	99%	> 10 µM	> 10 µM	> 10 µM	> 10 µM	> 10 µM
Cc1ccc(OC[C@@H](O)[C@H](C)NC(C)C)c2c1CCC2 (racemic) [ICI-118,551]	0	0	0	0	0	109%	103%	99.2%	109%	97.8%	121%	98.9%	109%	105%	112%	111%	106%	100%	111%	95.3%	108%	98.5%	113%	100%	113%	98.6%	94.2%	101%	90.5%	94.1%	> 10 µM	> 10 µM	> 10 µM	> 10 µM	> 10 µM
CCCCCCCCCCCCCCCCCCCCCCCCCCCCO [1-octacosanol]	0	0	0	0	0	95.4%	85.8%	97%	91.8%	95%	99.1%	105%	102%	95.5%	96.1%	103%	109%	97.6%	116%	102%	97.6%	96.5%	102%	96.2%	96%	95.5%	98.5%	96.7%	95.6%	104%	> 10 µM	> 10 µM	> 10 µM	> 10 µM	> 10 µM
O=C(O)c1ccc(N2C(=O)/C(=C/c3ccc(-c4ccc([N+](=O)[O-])cc4)o3)C=C2c2ccccc2)cc1 [4E1RCat]	0.2	0	0	0	0	97.3%	97.1%	98.2%	96.4%	87.5%	93.1%	105%	95.2%	87.3%	100%	104%	108%	91.4%	102%	88.7%	98.4%	98.1%	102%	94.7%	92.5%	98.1%	100%	99%	98.7%	99.3%	> 10 µM	> 10 µM	> 10 µM	> 10 µM	> 10 µM
c1ccc(CNc2ncnc3[nH]cnc23)cc1 [6-benzylaminopurine]	0	0	0	0	0	97%	107%	90.8%	109%	112%	99.9%	98.4%	120%	97.3%	112%	98.3%	106%	98.9%	109%	98.4%	106%	97.9%	103%	99.5%	100%	97.1%	104%	95.6%	95%	104%	> 10 µM	> 10 µM	> 10 µM	> 10 µM	> 10 µM
Cc1c(F)cc(C(=O)NC2CC2)cc1-c1c(F)cn2c(C(C)(C)C)nnc2c1F [AL-8697]	0	0	0	0	1.4	95.4%	93.5%	97.7%	93.4%	95.3%	95.7%	99.2%	97%	88.4%	102%	96.5%	105%	90.9%	105%	94.7%	98.9%	95.9%	94.1%	93.1%	93.7%	95.8%	100%	93.9%	86.3%	87%	> 10 µM	> 10 µM	> 10 µM	> 10 µM	> 10 µM
O=C(NC1CCNCC1)c1n[nH]cc1NC(=O)c1c(Cl)cccc1Cl [AT-7519]	3.3	5.9	14	5.2	0	91.4%	93.2%	94.2%	104%	33.5%	100%	99%	95.9%	83.9%	37.5%	111%	99.4%	108%	22.5%	9.6%	103%	97.6%	100%	100%	7%	99.6%	102%	102%	99.6%	96.6%	3.46 µM	1.53 µM	0.509 µM	3.19 µM	> 10 µM

Reference: the supplement of paper PMC13380429
